In brackets after ≈: the same amount, converted by molar mass. Where a SMILES comes first, the peptide text is derived from it. Bridges are numbered along the chain shown (N, C = ends).
Columns and labels:
E. coli CVCC1515 = type: cell-based, Escherichia coli
Protocol: (§1) The antimicrobial activity of peptides was determined by the microbroth dilution method ([Zhang et al., 2014]). The bacterial strains were incubated in Mueller-Hinton (MH) medium at 28°C or 37°C overnight. Bacteria (1 × 10^5 CFU/mL) were added into 96-well plates, followed by the addition of serial dilutions of peptides (from 0.0625 to 128 μg/mL). The plates were incubated at 37°C for 18–24 h. The minimal inhibitory concentration (MIC) value was determined as the lowest peptide concentration at which no bacterial growth was observed.

E. coli CVCC25922 = type: cell-based, Escherichia coli
Protocol: as §1

S. typhimurium ATCC14028 = type: cell-based, Salmonella typhimurium
Protocol: as §1

[1] = type: cell-based, Streptococcus enteritidis
Protocol: as §1

Edwardsiella tarda = type: cell-based
Protocol: as §1

Escherichia coli CVCC195 = type: cell-based
Protocol: as §1

[2] = tested on: Salmonella pullorum CVCC1802; type: cell-based
Protocol: as §1

[3] = tested on: Salmonella typhimurium CVCC533; type: cell-based; conditions: murium CVCC533
Protocol: as §1

[4] = tested on: Staphylococcus aureus ATCC43300; type: cell-based
Protocol: as §1

[5] = tested on: Staphylococcus hyicus 437-2; type: cell-based
Protocol: as §1

S. pullorum CVCC1789 = type: cell-based, Salmonella pullorum
Protocol: as §1

S. aureus ATCC25923 = type: cell-based, Staphylococcus aureus
Protocol: as §1

S. aureus ATCC546 = type: cell-based, Staphylococcus aureus
Protocol: as §1

S. hyicus 15095 = type: cell-based, Staphylococcus hyicus
Protocol: as §1

[6] = tested on: Gram-negative and Gram-positive bacteria (ALL); assay: Geometric mean of MICs and therapeutic index; type: cell-based
Protocol: as §1
(§2) The geometric mean (GM) of MICs of peptides against Gram-negative and Gram-positive bacteria was calculated, and the result was shown in Table 3. […] For Gram-negative bacteria, the TI value of GUON6NH2 (53.33) was very close to N6NH2 (58.18), while for positive bacteria, the TI value of GUON6NH2 (12.8) was slightly higher than that of N6NH2 (12.31), indicating their huge therapeutic potential. For Gram-positive bacteria, DN6NH2 had the highest TI value and the best therapeutic potential.

Gram-negative bacteria = assay: Geometric mean of MICs and therapeutic index; type: cell-based
Protocol: as §1, §2

Gram-positive bacteria = assay: Geometric mean of MICs and therapeutic index; type: cell-based
Protocol: as §1, §2

murine erythrocytes = type: cell-based, mouse
Protocol: The hemolysis of peptides was evaluated by determining the amount of hemoglobin that was released from fresh mouse erythrocytes ([Flamm et al., 2019]). The blood cells were washed three times with 10 mM PBS (pH 7.4) and centrifuged for 10 min (1,500 rpm). Erythrocyte solution (8%, v/v) was mixed with peptide solutions (1:1) and incubated for 1 h at 37°C. The mixture was then centrifuged for 5 min (1,500 rpm), and the absorbance of supernatants was measured at 540 nm. Values of 0 and 100% hemolysis were determined in PBS and 0.1% triton X-100, respectively. The hemolysis of peptides was calculated using the following formula: Hemolysis (%) = [(Abs treated sample – Abs negative control)/(Abs positive control – Abs negative control)] × 100.

E. tarda [7] = assay: Time-killing curve; type: cell-based, Edwardsiella tarda; conditions: 2× or 4× MIC, MHB, 1 × 10^5 CFU/mL, 28°C
Protocol: Time-killing curve of peptides was performed according to the previous method ([Flamm et al., 2019]). E. tarda was cultured to logarithmic phase, diluted in Mueller Hinton broth (MHB) (1 × 10^5 CFU/mL) containing 1×, 2×, or 4× MIC of peptides, and cultured at 28°C (200 rpm). PBS was added as a control. Bacterial samples (100 μL) were removed at different time intervals (0, 0.5, 1, 1.5, 2, 4, 6, 8, 10, 12, 22, and 24 h) and were counted on MH solid plates. The time-killing curves of peptides were plotted. Bacterial cells treated with 2× MIC norfloxacin and without treatment were used as the positive and blank controls, respectively.

LPS = LPS binding, BODIPY-TR-cadaverine (BC) probe displacement; conditions: 0.5 μM LPS, 5 μM BC, Tris buffer pH 7.4; peptides 0.049 to 50 μM
Protocol: The BODIPY’-TR-cadaverine (BC) probe was used to determine the ability of peptides to bind to LPS ([Wang et al., 2020]). 0.5 μM LPS was incubated with 5 μM BC in […] Tris buffer (pH 7.4) for 4 h at 37°C. Subsequently, the peptides were added into the mixture and the final concentrations of peptides ranged from 0.049 to 50 μM. Ampicillin was used as the negative control. Changes in fluorescence were measured by a fluorescence spectrophotometry at room temperature (excitation/emission, 580/620 nm).

[8] = tested on: inner membrane of E. tarda; assay: Inner membrane penetration, PI staining by flow cytometry; type: cell-based, Edwardsiella tarda; conditions: 1× MIC, 5–30 min at 37°C, 1 × 10^8 CFU/mL
Protocol: Mid-log phase E. tarda cells (1 × 10^8 CFU/mL) were incubated with or without 1× MIC peptides solutions at 37°C for 5, 15, and 30 min, respectively. After washing twice with PBS, bacterial cells were then incubated with 50 μg/mL propidium iodide (PI) for 15 min and analyzed using a FACS Calibur Flow Cytometer (BD, United States) ([Stearns-Kurosawa et al., 2011]).

E. tarda [9] = assay: SEM and TEM morphology; type: cell-based, Edwardsiella tarda; conditions: 4× MIC, 2 h
Protocol: To further characterize the bactericidal effects of the peptides, scanning electron microscopy (SEM) and transmission electron microscopy (TEM) were used to visualize morphological changes ([Yang et al., 2019]). E. tarda was cultured to logarithmic growth stage (10^8 CFU/mL) and diluted with 0.01 M PBS (pH 7.4) to OD600 nm = 1. E. tarda cells were treated with 4× MIC peptides at 37°C for 2 h and the untreated cells were used as the control. Briefly, after centrifugation, the bacterial cells were washed three times with 0.1 M PBS (pH 7.2) and fixed overnight at 4°C with 2.5% glutaraldehyde. After washing again, the cells were fixed with 1% osmium tetroxide (OsO4) for 2 h and dehydrated in a graded ethanol series (50%–70%–85%–95% × 2–100%, × 2) for 15 min, respectively. The samples were then dried by CO2, sputtered with gold-palladium, and observed on a QUANTA200 SEM (FEI, Philips, Netherlands).
E. tarda cells were treated peptides before fixation as described above. The bacteria were washed with 0.01 M PBS (pH 7.4) for five times, 7 min each time, and fixed with 1% osmium acid buffer (4°C) for 1 h. After dehydration with a graded acetone series (30%–50%–70%–85%–95%–100% × 3), the cells were immersed in mixtures of acetone and resin (3:1, 1:1 and 1:3, respectively) for 40 min and in a pure epoxy resin overnight. The samples were then embedded in embedding medium and polymerized at 45°C for 3 h and at 65°C for 24 h, respectively. The sections were prepared using an ultramicrotome, stained with 1% uranyl acetate, and visualized by a JEM1400 (JEDL, Tokyo, Japan).

[10] = therapeutic index (TI), cell selectivity

CC(C)[C@H](N)C(=O)N[C@@H](Cc1ccccc1)C(=O)N[C@@H](C)C(=O)N[C@@H](Cc1c[nH]c2ccccc12)C(=O)N[C@@H](CC(N)=O)C(=O)N[C@H](C(=O)N[C@H]1CSSC[C@@H](C(=O)N[C@@H](Cc2c[nH]cn2)C(=O)N[C@@H](CCCNC(=N)N)C(=O)N[C@@H](CCCNC(=N)N)C(=O)N[C@@H](C)C(=O)N[C@@H](CC(N)=O)C(N)=O)NC(=O)[C@H](C(C)C)NC(=O)[C@H](CCCNC(=N)N)NC(=O)[C@H](C(C)C)NC(=O)[C@H](C(C)C)NC(=O)[C@H](CC(N)=O)NC(=O)[C@H](CCCNC(=N)N)NC(=O)[C@H](Cc2ccc(O)cc2)NC(=O)[C@H](C(C)C)NC1=O)C(C)C [V112N6NH2] (H-VFAWNVCVYRNVVRVCHRRAN-NH2; disulfide 7-16 (inferred); N-terminus assumed)
MIC (E. coli CVCC1515): 4 µg/mL (≈ 1.56 µM)
MIC (E. coli CVCC25922): 8 µg/mL (≈ 3.13 µM)
MIC (S. typhimurium ATCC14028): 16 µg/mL (≈ 6.25 µM)
MIC [1]: 2 µg/mL (≈ 0.782 µM)
MIC (Edwardsiella tarda): 32 µg/mL (≈ 12.5 µM)
MIC (Escherichia coli CVCC195): 8 µg/mL (≈ 3.13 µM)
MIC [2]: 8 µg/mL (≈ 3.13 µM)
MIC [3]: 16 µg/mL (≈ 6.25 µM)
MIC [4]: 32 µg/mL (≈ 12.5 µM)
MIC [5]: 32 µg/mL (≈ 12.5 µM)
MIC (S. pullorum CVCC1789): 16 µg/mL (≈ 6.25 µM)
MIC (S. aureus ATCC25923): 32 µg/mL (≈ 12.5 µM)
MIC (S. aureus ATCC546): 16 µg/mL (≈ 6.25 µM)
MIC (S. hyicus 15095): 16 µg/mL (≈ 6.25 µM)
GM ALL ([6]; geometric mean (GM) of MICs, all strains): 16.4 µg/mL
TI ALL [6, 10]: 15.61
GM Gram-negative bacteria (Gram-negative bacteria; geometric mean (GM) of MICs against Gram-negative bacteria): 11.8 µg/mL
TI Gram-negative bacteria (Gram-negative bacteria; [10]): 21.69
GM Gram-positive bacteria (Gram-positive bacteria; geometric mean (GM) of MICs against Gram-positive bacteria): 25.6 µg/mL
TI Gram-positive bacteria (Gram-positive bacteria; [10]): 10
MHC (murine erythrocytes): >128 µg/mL
time to completely kill E. tarda (E. tarda [7]): ≤ 6 h
ability to bind to LPS (BC probe displacement) (LPS): V112N6NH2 > GUON6NH2 > N6NH2 > DN6NH2 > N6PNH2
penetration rate (PI-stained cells) [8]: 0.85–30.1%
morphological changes by SEM (E. tarda [9]): some protrusions were observed on the cell surfaces

CC1(C)S[C@@H]2[C@H](NC(=O)[C@H](N)c3ccccc3)C(=O)N2[C@H]1C(=O)O [ampicillin, Ampicillin, reference compound]
ability to bind to LPS (BC probe displacement) (LPS): did not replace BC probe to bind to LPS

— article PMC7985170, “Marine Peptide-N6NH2 and Its Derivative-GUON6NH2 Have Potent Antimicrobial Activity Against Intracellular Edwardsiella tarda in vitro and in vivo” (Frontiers in Microbiology, 2021)
